How the values were obtained:
Format in all cases: in vivo, BALB/c mice
[1] = test system: OVA-sensitized/challenged mouse model; assay: Airway hyperresponsiveness test (Penh, whole body plethysmography, methacholine); conditions: 30 mg/kg PO
Procedure: In order to confirm the anti-asthmatic effect of test samples prepared in Examples using by airway hyperresponsiveness test in a OVA-sensitized/challenged mouse model, following test was performed by the method disclosed in the literature (Elias, J. A. et al., J. Clin. Invest., 111, pp 297-297, 2003).
(§1) Specific pathogen-free female BALB/c mice (about 20 g), aged 6 weeks, which were routinely screened serologically for relevant respiratory pathogens, were purchased from ORIENT Co. (Seoul, Korea) and acclimated with the experimental environment for 1 week.
(§2) Briefly, mice were sensitized by intraperitoneal injection of 20 μg OVA (Ovalbumin; A5503, Sigma, St. Louis, Mo.), which was emulsified in 2 mg aluminum hydroxide in 200 μl of PBS buffer (pH 7.4), biweekly. The mice were challenged through the airways with OVA (1% in PBS) for 30 min using an ultrasonic nebulizer (NE-U12; Omron Corp., Tokyo, Japan) from the 28th day to 34th day after the initial sensitization. 24 hrs after the antigen treatment, the airway hyperresponsiveness was determined and the mice were sacrificed 48 hrs after the last challenge. The mice were sacrificed with an overdose of pentobarbital (Entobal®, Hanrim Pharm. Co. Ltd.) 24 h after the last challenge, and a tracheotomy was performed. After 1.2 ml of physiological saline solution (PBS) was instilled into the lungs, bronchoalveolar lavage fluid (BALF) was obtained by aspiration three times (total 1.5 ml) via tracheal cannulation. […]
In order to evaluate the airway hyperresponsiveness of the mice, the airway resistance was determined using by apparatus (One chamber whole body plethymography, OCP3000, All Medicus, Seoul. Korea) and the determined value was statistically calculated by Pehn value (Enhance Pause) reflecting on the degree of airway obstruction. The Penh value was determined for 3 mins by the process of determining the basal value at the eupnea phase and determining the Penh value after inhaling PBS with Ultrasonic nebulizer (NE-U12, IMRON Corp., Tokyo, JAPAN) for 3 mins.
Thereafter, various concentrations of methacholine (A2251, Sigma, St. Louis, Mo.), 12, 25 and 50 mg/ml, were inhaled with increasing concentration to determine the Pehn values. The increase of Penh value was expressed as percentage (%) after the methacholine inhalation and the Penh value of basal line was set to 100%. […]

[2] = test system: OVA-sensitized/challenged mouse model; assay: Level of IgE and OVA-specific IgE in blood serum (ELISA); conditions: 30 mg/kg PO
Procedure: In order to confirm the inhibition effect of test samples prepared in Examples on the level of IgE and OVA-specific IgE in blood serum, following test was performed by the method disclosed in the literature (Kay, A. B., The New England Journal of Medicine, 344, pp 30-37, 2001).
The blood serum and bronchoalveolar lavage fluid (BALF) prepared in Experimental Example 1 was recovered to determine the level of IgE and OVA-specific IgE in blood serum.
The blood serum and bronchoalveolar lavage fluid (BALF) was added to 96-well plates (ELISA plate) and coated with 0.1M NaHCO3 buffer solution (pH 8.3) containing 20 μg/mlof OVA (Sigma, Mo., USA) at 4° C. overnight. After inhibiting nonspecific reaction using by PBS containing 1% bovine serum albumin, the serum for testing was diluted to 1:400 and reacted together for 2 hours at room temperature. After washing, the serum was reacted with diluted (×300) anti-mouse IgE monoclonal antibody (MCA419, Serotec, Oxford, UK) for 2 hours and with diluted (×4000) HRP-conjugated goat anti-rat IgG polyclonal A (STAR110P, Serotec, UK) for 1 hours at room temperature. After washing, the solution was stained with 3,3′,5,5′-tetramethylbenzidine (52-00-02, KPL) substrate and the reaction was stopped by 2N H2SO4 to determine the absorbance using by spectroscopy (Versamax, Molecular Devices, US) at 450 nm.

[3] = test system: OVA-sensitized/challenged mouse model; assay: Level of eosinophil and inflammatory cells in BALF; conditions: 30 mg/kg PO
Procedure: In order to confirm the inhibition effect of test samples prepared in Examples on the level of eosinophil and inflammatory cells in bronchoalveolar fluid (BALF), following test was performed by the method disclosed in the literature (Chen M. et al., Immunolgy, pp 376-384, 2011).
The bronchoalveolar lavage fluid (BALF) prepared in Experimental Example 1 was recovered to determine the level of inflammatory cells.
The total inflammatory cell number was assessed by the counting of cells in at least five squares of a hemocytometer after excluding dead cells by staining with trypan blue (Daigle I. et al., Swiss Med Wkly, 131, pp 231-7, 2001). 100 μl of BALF was loaded onto a slide and centrifuged (200×g, 4° C., 10 min) to fix the cells onto the slide using a Cellspin machine (Cyto12.5+clip5, Hanil Science Industrial, Korea). The cells were stained by Diff-Quick® Stain reagents (Sysmex, Cat No. 38721, Switzerland) according to the manufacturer's instructions. Statistical significance was determined by Student's two-tailed t-test for independent means and the critical level for significance was set at P<0.05.

[4] = test system: OVA-sensitized/challenged mouse model; assay: Level of Th2 cytokines (IL-4, IL-5, IL-13) and IL-1β in BALF (ELISA); conditions: 30 mg/kg PO
Procedure: In order to confirm the inhibition effect of test samples prepared in Examples on the level of Th2 cytokines (IL-4, IL-5 and IL-13) and IL-1β in bronchoalveolar lavage fluid (BALF), following test was performed by the sandwich enzyme immunosorbent assay method disclosed in the literature (Renz H. et al., J. Exp. Med., […], pp 1175-1180, 1993).
The blood serum and bronchoalveolar lavage fluid (BALF) was added to 96-well plates (ELISA plate) coated with cytokine antibody to induce antigen-antibody reaction for 2 hours at room temperature. The level of Th2 cytokines (IL-4, IL-5 and IL-13) and IL-1β in bronchoalveolar lavage fluid (BALF) was determined using by ELISA kit (Biosource Int. CA, USA) specifically reacting with each cytokine according to the manufacture's manual.

[5] = test system: OVA-sensitized/challenged mouse model; assay: Lung histology, H&E inflammation score; conditions: lung tissue, score 0-3; 30 mg/kg PO
Procedure: In order to confirm the anti-asthmatic effect of test samples prepared in Examples, following histopathological analysis on broncho-alveolar tissue was performed by the method disclosed in the literature (Kwak Y G. et al., J. Clin. Invest., 111, pp 1083-1092, 2003).
The delivered lung tissues of BALB/c mice which had not perform broncho-alveolar lavage was fixed for 24 h in 10% neutral-buffered formalin. After being embedded in paraffin, then made into 4-μm thickness sections, the tissue was stained with H&E solution (hematoxylin; Sigma MHS-16 and eosin, Sigma HT110-I-32) and the inflammation score of five regions in each section chosen in a randomized manner, was determined. (Inflammation score 0: inflamed cells is not found in bronchial surrounding, Inflammation score 1: inflamed cells is sporadically found in bronchial surrounding, Inflammation score 2: thin inflamed cell layer is found in most of bronchial surrounding, Inflammation score 3: thick inflamed cell layer is found in most of bronchial surrounding).

[6] = test system: OVA-sensitized/challenged mouse model; assay: Goblet cell plasia, PAS staining of lung tissue; conditions: ratio of goblet cell in bronchiolar epithelial cell; 30 mg/kg PO
Procedure: In order to confirm the anti-asthmatic effect of test samples prepared in Examples, following goblet cell plasia analysis on broncho-alveolar tissue was performed by the method disclosed in the literature (Lee K S. et al., FASEB J., 20, pp 455-465, 2006).
The delivered lung tissues of BALB/c mice which had not perform broncho-alveolar lavage was fixed for 24 h in 10% neutral-buffered formalin. After being embedded in paraffin, then made into 4-μm thickness sections, the tissue was stained with Periodic acid Schiff (PAS stain kit, T-K7308, IMEB, CA, USA) to determine the ratio of goblet cell in bronchiolar epithelial cell

[7] = test system: OVA-sensitized/challenged mouse model; assay: Preliminary determination of total serum IgE level in OVA-sensitized/challenged mouse model; conditions: 30 mg/kg PO 1 h prior to OVA inhalation
Procedure: In order to found the purified extract showing more pharmacologically potent activity than the crude extract prepared in comparative Example, following preliminary test was performed by the method disclosed in the literature (Elias, J. A. et al., J. Clin. Invest., 111, pp 297-297, 2003).
1-1. Animal Sensitization and Airway Challenge
as §1
as §2, with “performed.” for “performed. After 1.2 ml of physiological saline solution (PBS) was instilled into the lungs, bronchoalveolar lavage fluid (BALF) was obtained by aspiration three times (total 1.5 ml) via tracheal cannulation.”

## CC(C)(O)c1ccccc1CC[C@@H](SCC1(CC(=O)O)CC1)c1cccc(/C=C/c2ccc3ccc(Cl)cc3n2)c1 [M30, Montelukast]
[1]; methacholine 0 mg/Ml
  Penh Value: 0.49 ± 0.04
[1]; methacholine 12.5 mg/Ml
  Penh Value: 1.54 ± 0.20
[1]; methacholine 25 mg/Ml
  Penh Value: 1.98 ± 0.37
[1]; methacholine 50 mg/Ml
  Penh Value: 2.51 ± 0.36
[2]
  level of IgE in serum: 4.76 ± 0.73 µg/mL
[2]; blood serum
  level of OVA-specific IgE: 0.09 ± 0.02 µg/mL
[3]
  No. of eosinolphil: 52.03 ± 4.06 10^3 cells/mouse
  No. of inflammatory cells: 106.67 ± 6.48 10^3 cells/mouse
[4]
  IL-1β level: 187.03 ± 47.17 pg/mL
  IL-4 level: 32.60 ± 4.53 pg/mL
  IL-5 level: 69.74 ± 7.17 pg/mL
  IL-13 level: 25.93 ± 4.13 pg/mL
[5]
  Inflammation score: 1.25 ± 0.13
[6]
  PAS + cells/bronchiole: 39.21 ± 2.34%
[7]
  total IgE in blood serum: 1.82 ± 0.4 µg/mL
